This is an account of results in US7605265B2, “Heterodimers and methods of using them” (priority 2007, dated 2009).

For experiment [1], the system named is scopolamine-induced memory impaired rats. The experiment in a line: Morris water maze, scopolamine-induced memory impairment. The class given is in vivo, rat. Conditions: tacrine 1.5 mg/kg, scopolamine 0.1 mg/kg i.p. On the procedure:
The Morris water maze consists of a water pool with a hidden, submerged escape platform. The rats must learn, over a period of consecutive days, the location of the platform using either contextual or local cues. The time taken to locate the hidden platform (escape latency) is a measure of the animal's cognitive abilities.
Scopolamine (0.1 mg/kg) was first i.p. administered to young adult rats to impair their memories. Scopolamine-induced memory impaired rats were then orally administered one of three different doses of compound B (0.025, 0.050, or 0.100 mg/kg) and subjected to the Morris water maze over a period of 4 days. On each day, the time taken for the rats to detect the hidden platform in the water maze was measured, in seconds.
Scopolamine (0.1 mg/kg) was first i.p. administered to young adult rats to impair their memories. Scopolamine-induced memory impaired rats were then orally administered one of three different doses of compound C (0.1, 0.2, or 0.4 mg/kg) and subjected to the Morris water maze over a period of 4 days. On each day, the time taken for the rats to detect the hidden platform in the water maze was measured, in seconds.
Scopolamine (0.1 mg/kg) was first i.p. administered to young adult rats to impair their memories. Scopolamine-induced memory impaired rats were then orally administered one of three different doses of compound A (0.1, 0.2, or 0.4 mg/kg) and subjected to the Morris water maze over a period of 4 days. On each day, the time taken for the rats to detect the hidden platform in the water maze was measured, in seconds.
A spatial bias (% of total distance swum in the training quadrant during spatial probe trial) for the region of the apparatus where the platform was positioned during training was also measured for compounds B and C.
The spatial bias for the region of the testing apparatus where the hidden platform was positioned during training was measured. […] Tacrine (THA) was included for comparison purposes.

In experiment [2] the target is T1, acetylcholinesterase (AChE) (Rattus norvegicus, UniProt P37136).
T1 construct: from tissue; host or cells: rat brain cortex
T1 sequence (P37136 32-614): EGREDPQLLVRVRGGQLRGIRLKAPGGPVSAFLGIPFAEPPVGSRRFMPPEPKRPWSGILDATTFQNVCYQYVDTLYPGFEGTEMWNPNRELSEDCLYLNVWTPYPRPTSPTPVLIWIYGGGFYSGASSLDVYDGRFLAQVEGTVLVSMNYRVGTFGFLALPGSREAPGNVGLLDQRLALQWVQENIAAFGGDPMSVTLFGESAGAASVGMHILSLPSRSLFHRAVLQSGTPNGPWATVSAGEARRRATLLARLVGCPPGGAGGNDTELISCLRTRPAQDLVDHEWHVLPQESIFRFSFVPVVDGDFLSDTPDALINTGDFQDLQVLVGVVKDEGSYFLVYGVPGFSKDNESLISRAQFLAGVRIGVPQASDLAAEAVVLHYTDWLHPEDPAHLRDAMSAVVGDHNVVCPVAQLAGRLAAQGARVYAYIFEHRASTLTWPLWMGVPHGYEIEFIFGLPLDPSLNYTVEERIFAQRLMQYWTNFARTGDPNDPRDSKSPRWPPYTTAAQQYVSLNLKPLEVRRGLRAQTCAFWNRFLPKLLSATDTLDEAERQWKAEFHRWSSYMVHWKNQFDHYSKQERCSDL
Nature of the experiment: In vitro inhibition of AChE (cholinesterase assay, Ellman method). Type of experiment: biochemical. On the procedure: The in vitro inhibition of the enzymes acetylcholinesterase (AChE) and butyrylcholinesterase (BChE) were assessed. BChE, like AChE, breaks down acetylcholine (ACh) but is found in plasma and other organs such as the liver, skin and gastrointestinal tract.
The enzymes, AChE and BChE, used in the inhibition studies were prepared from the cortex and serum of decapitated rats, respectively.

The target in experiment [3] is T2, butyrylcholinesterase (BChE) (Rattus norvegicus, UniProt Q9JKC1).
T2 construct: from tissue; host or cells: rat serum
Nature of the experiment: biochemical.

T2 sequence (Q9JKC1 24-597): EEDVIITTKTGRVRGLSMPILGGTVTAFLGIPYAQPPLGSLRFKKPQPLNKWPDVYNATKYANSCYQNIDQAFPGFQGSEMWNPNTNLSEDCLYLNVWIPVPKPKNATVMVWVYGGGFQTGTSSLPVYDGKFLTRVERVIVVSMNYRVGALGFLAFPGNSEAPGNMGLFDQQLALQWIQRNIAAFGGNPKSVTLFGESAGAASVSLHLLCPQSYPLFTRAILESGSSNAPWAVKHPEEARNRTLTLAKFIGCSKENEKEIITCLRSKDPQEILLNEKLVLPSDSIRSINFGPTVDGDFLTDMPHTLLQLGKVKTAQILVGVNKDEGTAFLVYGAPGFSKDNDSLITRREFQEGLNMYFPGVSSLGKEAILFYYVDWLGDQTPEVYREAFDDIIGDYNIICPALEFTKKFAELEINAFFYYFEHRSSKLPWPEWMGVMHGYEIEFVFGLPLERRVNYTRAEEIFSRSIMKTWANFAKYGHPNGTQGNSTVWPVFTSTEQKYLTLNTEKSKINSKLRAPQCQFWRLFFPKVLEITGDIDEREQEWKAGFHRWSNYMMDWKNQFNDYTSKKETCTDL

For the compound `Nc1c2c(nc3ccccc13)CCCC2` [Tacrine, reference compound], the “escape latency, compared with the novel compound” value in experiment [1] is on record as “less effective in shortening escape latency”.
`O=c1ccc2c([nH]1)CCCC2NCCCCCCCCNc1c2c(nc3ccccc13)CCCC2` (stereo not shown) [Compound D]: in experiment [2] (IC50 (BChE)/IC50 (AChE)), the “Selectivity AchE*” value stood at 31.52. Further, the IC50 in experiment [2] (enzyme prepared from rat cortex) was determined as 13.6 ± 1.76 nM; in experiment [3], 430 ± 46.7 nM.
